Holding throughout (type): physicochemical
Data set [1] in a line: Storage stability of samples of Form I at controlled temperature and relative humidity. Here is the method: Samples of Form I were maintained for at least 9 months at 25°, and 60% and at least 6 months at 40° and 75% relative humidity.
The nature of data set [2]: Solid form stability (tendency to convert to a different solid form, high RH). As for the experimental part:
(§1) Water sorption isotherms are determined using a dynamic vapor sorption system (Advantage 1, DVS, London, UKDVS Intrinsic Plus, Surface Measurement Systems, Allentown, PA).
(§2) Approximately 5-10 mg of solid is weighed into a tared aluminum pan. The samples are subjected to 0 to 90% RH stepwise with a step size of […] at 25° C. Equilibration criteria are dm/dt of 0.002% over 5 minutes or 360 minutes at a specified % RH. Each sample is equilibrated at each RH step for at least 60 min, and equilibrium is assumed if weight increase is less than 0.1% within one minute, and the maximum duration on each RH is 6 hours. Therefore, each sample is held at a given RH for 1 to 6 hours depending on how fast the equilibrium is reached
The amorphous of Compound 1 (10 mg) is added to a pan for Dynamic Vapor Sorption analysis. The solid is exposed stepwise from 40 to 95 to 0 to 95 to 0% RH at 25° C. Form III is isolated after completing the stepwise exposures.

Data set [3] is described as follows: Hygroscopicity (water sorption, dynamic vapor sorption). To be noted: compared to the anhydrate (Form I) and monohydrate forms (Form III, Form V). Here is the method:
as §1, §2

[4] abbreviates: at least 6 months at 40° and 75% relative humidity.
Where [5] appears, read: at least 9 months at 25°, and 60%.

Results on two compounds are retold here after patent US20240199590A1, “SOLID FORMS OF A SGC ACTIVATOR” (Boehringer Ingelheim International GmbH, priority 2022, published 2024).

Consider `CCOc1c(C(=O)O)cnn1-c1cccc(-c2cccc(C)c2OCc2ccc3c(c2C)CCN(C2CCOCC2)C3)n1` [Form I], for which, in data set [1] (setting [4]), the “change in particle sized distribution on storage” value was “no change in particle sized distribution”, the “changes in Raman spectra on storage” value is “no”, the “increase in impurity levels on storage” value is reported as “no increase in impurity levels” and the “increase in water content on storage” value is “no increase in water content”. In data set [1] (setting [5]), the “change in particle sized distribution on storage” value is on record as “no change in particle sized distribution”, the “changes in Raman spectra on storage” value is reported as “no”, the “increase in impurity levels on storage” value was “no increase in impurity levels” and the “increase in water content on storage” value is given as “no increase in water content”. Further, the “stability as compared to the amorphous form of Compound 1” value in data set [2] (compared to the amorphous form) is recorded as “improved stability”.

As for `CCOc1c(C(=O)O)cnn1-c1cccc(-c2cccc(C)c2OCc2ccc3c(c2C)CCN(C2CCOCC2)C3)n1` [amorphous form of Compound 1], the hygroscopicity entry in data set [3] is recorded as “higher hygroscopicity”. Moreover, the “stability of the solid form under high RH” value in data set [2] (high RH, converting to Form III) is recorded as “not stable”.
